# Source: the supplement of paper PMC10733146
# Legend:
# Test in all cases: viability relative to DMSO control (fraction); higher = less drug effect (more viable cells)
# Settings in all cases: 48 h
# Selinexor = compound: O=C(/C=C\n1cnc(-c2cc(C(F)(F)F)cc(C(F)(F)F)c2)n1)NNc1cnccn1 [Selinexor]
# Method in brief: (§1)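 Viability was measured as CellTiter-Glo luminescence relative to the median of 16 inner DMSO wells. Primary mononuclear tumour cells, fresh or cryopreserved, were Ficoll-isolated from blood or bone marrow or taken from processed lymph node. They were seeded at 4 × 10^4 cells per well into 384-well plates holding pre-plated compounds at five concentrations, one well each, and kept in RPMI-1640 with penicillin/streptomycin, L-glutamine and human serum at 37 °C and 5% CO2 for 48 h.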
# CPI-169 = compound: CCS(=O)(=O)N1CCC([C@@H](C)n2c(C)c(C(=O)NCc3c(OC)cc(C)[nH]c3=O)c3ccccc32)CC1 [CPI-169]
# Method in brief: as §1
# Etoposide = compound: COc1cc([C@@H]2c3cc4c(cc3[C@@H](O[C@@H]3O[C@@H]5CO[C@@H](C)O[C@H]5[C@H](O)[C@H]3O)[C@H]3COC(=O)[C@H]23)OCO4)cc(OC)c1O [Etoposide]
# Method in brief: as §1
# Everolimus = compound: CO[C@H]1C[C@@H]2CC[C@@H](C)[C@@](O)(O2)C(=O)C(=O)N2CCCC[C@H]2C(=O)O[C@H]([C@H](C)C[C@@H]2CC[C@@H](OCCO)[C@H](OC)C2)CC(=O)[C@H](C)/C=C(\C)[C@@H](O)[C@@H](OC)C(=O)[C@H](C)C[C@H](C)/C=C/C=C/C=C/1C [Everolimus]
# Method in brief: as §1
# Midostaurin hydrate = compound: CO[C@@H]1[C@H](N(C)C(=O)c2ccccc2)C[C@H]2O[C@]1(C)n1c3ccccc3c3c4c(c5c6ccccc6n2c5c31)C(=O)NC4 [Midostaurin hydrate]
# Method in brief: as §1
# Bendamustine = compound: Cn1c(CCCC(=O)O)nc2cc(N(CCCl)CCCl)ccc21 [Bendamustine]
# Method in brief: as §1
# Tofacitinib = compound: C[C@@H]1CCN(C(=O)CC#N)C[C@@H]1N(C)c1ncnc2[nH]ccc12 [Tofacitinib]
# Method in brief: as §1
# SGC 0946 = compound: CC(C)N(CCCNC(=O)Nc1ccc(C(C)(C)C)cc1)C[C@H]1O[C@@H](n2cc(Br)c3c(N)ncnc32)[C@H](O)[C@@H]1O [SGC 0946]
# Method in brief: as §1
# Roscovitine = compound: CC[C@H](CO)Nc1nc(NCc2ccccc2)c2ncn(C(C)C)c2n1 [Roscovitine]
# Method in brief: as §1
# Entospletinib = compound: c1cn2cc(-c3ccc4cn[nH]c4c3)nc(Nc3ccc(N4CCOCC4)cc3)c2n1 [Entospletinib]
# Method in brief: as §1
# Barasertib = compound: CCN(CCCOc1ccc2c(Nc3cc(CC(=O)Nc4cccc(F)c4)[nH]n3)ncnc2c1)CCOP(=O)(O)O [Barasertib]
# Method in brief: as §1
# Palbociclib = compound: CC(=O)c1c(C)c2cnc(Nc3ccc(N4CCNCC4)cn3)nc2n(C2CCCC2)c1=O [Palbociclib]
# Method in brief: as §1
# EPZ-6438 = compound: CCN(c1cc(-c2ccc(CN3CCOCC3)cc2)cc(C(=O)NCc2c(C)cc(C)[nH]c2=O)c1C)C1CCOCC1 [EPZ-6438]
# Method in brief: as §1
test system,measurement,setting,value
primary AML patient cells (S079),viability,Selinexor; 0.008 µM,0.832
same,viability,Selinexor; 0.04 µM,0.76
same,viability,Selinexor; 0.2 µM,0.666
same,viability,Selinexor; 1 µM,0.559
same,viability,Selinexor; 5 µM,0.503
same,viability,CPI-169; 0.024 µM,0.941
same,viability,CPI-169; 0.12 µM,0.926
same,viability,CPI-169; 0.6 µM,0.984
same,viability,CPI-169; 3 µM,0.951
same,viability,CPI-169; 15 µM,0.866
same,viability,Etoposide; 0.032 µM,1.04
same,viability,Etoposide; 0.16 µM,0.961
same,viability,Etoposide; 0.8 µM,0.892
same,viability,Etoposide; 4 µM,0.892
same,viability,Etoposide; 20 µM,0.672
same,viability,Everolimus; 0.0032 µM,0.804
same,viability,Everolimus; 0.016 µM,0.805
same,viability,Everolimus; 0.08 µM,0.795
same,viability,Everolimus; 0.4 µM,0.798
same,viability,Everolimus; 2 µM,0.801
same,viability,Midostaurin hydrate; 0.024 µM,0.999
same,viability,Midostaurin hydrate; 0.12 µM,1.02
same,viability,Midostaurin hydrate; 0.6 µM,1.14
same,viability,Midostaurin hydrate; 3 µM,1.05
same,viability,Midostaurin hydrate; 15 µM,0.685
same,viability,Bendamustine; 0.032 µM,1.01
same,viability,Bendamustine; 0.16 µM,1.02
same,viability,Bendamustine; 0.8 µM,0.997
same,viability,Bendamustine; 4 µM,1.04
same,viability,Bendamustine; 20 µM,0.952
same,viability,Tofacitinib; 0.024 µM,0.898
same,viability,Tofacitinib; 0.12 µM,0.802
same,viability,Tofacitinib; 0.6 µM,0.764
same,viability,Tofacitinib; 3 µM,0.751
same,viability,Tofacitinib; 15 µM,0.766
same,viability,SGC 0946; 0.024 µM,0.905
same,viability,SGC 0946; 0.12 µM,0.896
same,viability,SGC 0946; 0.6 µM,0.934
same,viability,SGC 0946; 3 µM,0.894
same,viability,SGC 0946; 15 µM,0.788
same,viability,Roscovitine; 0.032 µM,0.895
same,viability,Roscovitine; 0.16 µM,0.985
same,viability,Roscovitine; 0.8 µM,0.976
same,viability,Roscovitine; 4 µM,0.936
same,viability,Roscovitine; 20 µM,0.682
same,viability,Entospletinib; 0.024 µM,1.01
same,viability,Entospletinib; 0.12 µM,0.936
same,viability,Entospletinib; 0.6 µM,1.04
same,viability,Entospletinib; 3 µM,0.968
same,viability,Entospletinib; 15 µM,0.965
same,viability,Barasertib; 0.0008 µM,0.868
same,viability,Barasertib; 0.004 µM,0.872
same,viability,Barasertib; 0.02 µM,0.806
same,viability,Barasertib; 0.1 µM,0.849
same,viability,Barasertib; 0.5 µM,0.936
same,viability,Palbociclib; 0.024 µM,0.951
same,viability,Palbociclib; 0.12 µM,0.901
same,viability,Palbociclib; 0.6 µM,0.848
same,viability,Palbociclib; 3 µM,0.828
same,viability,Palbociclib; 15 µM,0.514
same,viability,EPZ-6438; 0.024 µM,1.02
same,viability,EPZ-6438; 0.12 µM,0.996
same,viability,EPZ-6438; 0.6 µM,0.994
same,viability,EPZ-6438; 3 µM,0.954
same,viability,EPZ-6438; 15 µM,0.915
primary CLL patient cells (S043),viability,Selinexor; 0.008 µM,0.788
same,viability,Selinexor; 0.04 µM,0.746
same,viability,Selinexor; 0.2 µM,0.713
same,viability,Selinexor; 1 µM,0.595
same,viability,Selinexor; 5 µM,0.54
same,viability,CPI-169; 0.024 µM,0.895
same,viability,CPI-169; 0.12 µM,0.903
same,viability,CPI-169; 0.6 µM,0.877
same,viability,CPI-169; 3 µM,0.915
same,viability,CPI-169; 15 µM,0.915
same,viability,Etoposide; 0.032 µM,1.12
same,viability,Etoposide; 0.16 µM,1.02
same,viability,Etoposide; 0.8 µM,0.987
same,viability,Etoposide; 4 µM,1.01
same,viability,Etoposide; 20 µM,0.813
same,viability,Everolimus; 0.0032 µM,0.823
same,viability,Everolimus; 0.016 µM,0.851
same,viability,Everolimus; 0.08 µM,0.791
same,viability,Everolimus; 0.4 µM,0.831
same,viability,Everolimus; 2 µM,0.793
same,viability,Midostaurin hydrate; 0.024 µM,0.923
same,viability,Midostaurin hydrate; 0.12 µM,0.911
same,viability,Midostaurin hydrate; 0.6 µM,1.06
same,viability,Midostaurin hydrate; 3 µM,1.04
same,viability,Midostaurin hydrate; 15 µM,0.57
same,viability,Bendamustine; 0.032 µM,0.993
same,viability,Bendamustine; 0.16 µM,1.04
same,viability,Bendamustine; 0.8 µM,0.96
same,viability,Bendamustine; 4 µM,1.01
same,viability,Bendamustine; 20 µM,0.743
same,viability,Tofacitinib; 0.024 µM,0.937
same,viability,Tofacitinib; 0.12 µM,0.965
same,viability,Tofacitinib; 0.6 µM,0.961
same,viability,Tofacitinib; 3 µM,0.969
same,viability,Tofacitinib; 15 µM,1.14
same,viability,SGC 0946; 0.024 µM,0.87
same,viability,SGC 0946; 0.12 µM,0.88
same,viability,SGC 0946; 0.6 µM,0.877
same,viability,SGC 0946; 3 µM,0.872
same,viability,SGC 0946; 15 µM,0.756
same,viability,Roscovitine; 0.032 µM,0.869
same,viability,Roscovitine; 0.16 µM,0.972
same,viability,Roscovitine; 0.8 µM,0.952
same,viability,Roscovitine; 4 µM,1.08
same,viability,Roscovitine; 20 µM,0.901
same,viability,Entospletinib; 0.024 µM,0.988
same,viability,Entospletinib; 0.12 µM,0.936
same,viability,Entospletinib; 0.6 µM,0.94
same,viability,Entospletinib; 3 µM,0.977
same,viability,Entospletinib; 15 µM,0.947
same,viability,Barasertib; 0.0008 µM,0.995
same,viability,Barasertib; 0.004 µM,0.966
same,viability,Barasertib; 0.02 µM,0.952
same,viability,Barasertib; 0.1 µM,0.924
same,viability,Barasertib; 0.5 µM,0.929
same,viability,Palbociclib; 0.024 µM,0.981
same,viability,Palbociclib; 0.12 µM,0.959
same,viability,Palbociclib; 0.6 µM,0.876
same,viability,Palbociclib; 3 µM,0.722
same,viability,Palbociclib; 15 µM,0.421
same,viability,EPZ-6438; 0.024 µM,1.05
same,viability,EPZ-6438; 0.12 µM,0.982
same,viability,EPZ-6438; 0.6 µM,0.926
same,viability,EPZ-6438; 3 µM,0.963
same,viability,EPZ-6438; 15 µM,0.899
primary AML patient cells (S085),viability,Selinexor; 0.008 µM,1.23
same,viability,Selinexor; 0.04 µM,0.794
same,viability,Selinexor; 0.2 µM,0.641
same,viability,Selinexor; 1 µM,0.28
same,viability,Selinexor; 5 µM,0.198
same,viability,CPI-169; 0.024 µM,1.03
same,viability,CPI-169; 0.12 µM,1.02
same,viability,CPI-169; 0.6 µM,0.96
same,viability,CPI-169; 3 µM,1.2
same,viability,CPI-169; 15 µM,0.866
same,viability,Etoposide; 0.032 µM,0.996
same,viability,Etoposide; 0.16 µM,0.967
same,viability,Etoposide; 0.8 µM,0.907
same,viability,Etoposide; 4 µM,0.719
same,viability,Etoposide; 20 µM,0.308
same,viability,Everolimus; 0.0032 µM,0.881
same,viability,Everolimus; 0.016 µM,0.801
same,viability,Everolimus; 0.08 µM,0.873
same,viability,Everolimus; 0.4 µM,0.745
same,viability,Everolimus; 2 µM,0.858
same,viability,Midostaurin hydrate; 0.024 µM,1.15
same,viability,Midostaurin hydrate; 0.12 µM,1
same,viability,Midostaurin hydrate; 0.6 µM,1.13
same,viability,Midostaurin hydrate; 3 µM,2.59
same,viability,Midostaurin hydrate; 15 µM,1.08
same,viability,Bendamustine; 0.032 µM,1.04
same,viability,Bendamustine; 0.16 µM,1.12
same,viability,Bendamustine; 0.8 µM,1.09
same,viability,Bendamustine; 4 µM,0.89
same,viability,Bendamustine; 20 µM,0.822
same,viability,Tofacitinib; 0.024 µM,0.926
same,viability,Tofacitinib; 0.12 µM,0.815
same,viability,Tofacitinib; 0.6 µM,0.844
same,viability,Tofacitinib; 3 µM,0.908
same,viability,Tofacitinib; 15 µM,0.926
same,viability,SGC 0946; 0.024 µM,1.02
same,viability,SGC 0946; 0.12 µM,1.07
same,viability,SGC 0946; 0.6 µM,1
same,viability,SGC 0946; 3 µM,0.969
same,viability,SGC 0946; 15 µM,0.31
same,viability,Roscovitine; 0.032 µM,0.948
same,viability,Roscovitine; 0.16 µM,0.844
same,viability,Roscovitine; 0.8 µM,0.965
same,viability,Roscovitine; 4 µM,0.91
same,viability,Roscovitine; 20 µM,0.237
same,viability,Entospletinib; 0.024 µM,0.979
same,viability,Entospletinib; 0.12 µM,0.931
same,viability,Entospletinib; 0.6 µM,0.93
same,viability,Entospletinib; 3 µM,0.946
same,viability,Entospletinib; 15 µM,0.939
same,viability,Barasertib; 0.0008 µM,0.98
same,viability,Barasertib; 0.004 µM,0.816
same,viability,Barasertib; 0.02 µM,0.848
same,viability,Barasertib; 0.1 µM,0.876
same,viability,Barasertib; 0.5 µM,1.02
same,viability,Palbociclib; 0.024 µM,0.886
same,viability,Palbociclib; 0.12 µM,0.93
same,viability,Palbociclib; 0.6 µM,0.836
same,viability,Palbociclib; 3 µM,0.678
same,viability,Palbociclib; 15 µM,0.199
same,viability,EPZ-6438; 0.024 µM,1.16
same,viability,EPZ-6438; 0.12 µM,1.13
same,viability,EPZ-6438; 0.6 µM,1.09
same,viability,EPZ-6438; 3 µM,1.08
same,viability,EPZ-6438; 15 µM,0.89
